Key:
[1] = target: T1, Ubiquitin carboxyl-terminal hydrolase 8 (Homo sapiens, UniProt P40818); test: Inhibition of human USP8 using Ub-rhodamine 110 as substrate
T1 sequence (P40818 whole entry): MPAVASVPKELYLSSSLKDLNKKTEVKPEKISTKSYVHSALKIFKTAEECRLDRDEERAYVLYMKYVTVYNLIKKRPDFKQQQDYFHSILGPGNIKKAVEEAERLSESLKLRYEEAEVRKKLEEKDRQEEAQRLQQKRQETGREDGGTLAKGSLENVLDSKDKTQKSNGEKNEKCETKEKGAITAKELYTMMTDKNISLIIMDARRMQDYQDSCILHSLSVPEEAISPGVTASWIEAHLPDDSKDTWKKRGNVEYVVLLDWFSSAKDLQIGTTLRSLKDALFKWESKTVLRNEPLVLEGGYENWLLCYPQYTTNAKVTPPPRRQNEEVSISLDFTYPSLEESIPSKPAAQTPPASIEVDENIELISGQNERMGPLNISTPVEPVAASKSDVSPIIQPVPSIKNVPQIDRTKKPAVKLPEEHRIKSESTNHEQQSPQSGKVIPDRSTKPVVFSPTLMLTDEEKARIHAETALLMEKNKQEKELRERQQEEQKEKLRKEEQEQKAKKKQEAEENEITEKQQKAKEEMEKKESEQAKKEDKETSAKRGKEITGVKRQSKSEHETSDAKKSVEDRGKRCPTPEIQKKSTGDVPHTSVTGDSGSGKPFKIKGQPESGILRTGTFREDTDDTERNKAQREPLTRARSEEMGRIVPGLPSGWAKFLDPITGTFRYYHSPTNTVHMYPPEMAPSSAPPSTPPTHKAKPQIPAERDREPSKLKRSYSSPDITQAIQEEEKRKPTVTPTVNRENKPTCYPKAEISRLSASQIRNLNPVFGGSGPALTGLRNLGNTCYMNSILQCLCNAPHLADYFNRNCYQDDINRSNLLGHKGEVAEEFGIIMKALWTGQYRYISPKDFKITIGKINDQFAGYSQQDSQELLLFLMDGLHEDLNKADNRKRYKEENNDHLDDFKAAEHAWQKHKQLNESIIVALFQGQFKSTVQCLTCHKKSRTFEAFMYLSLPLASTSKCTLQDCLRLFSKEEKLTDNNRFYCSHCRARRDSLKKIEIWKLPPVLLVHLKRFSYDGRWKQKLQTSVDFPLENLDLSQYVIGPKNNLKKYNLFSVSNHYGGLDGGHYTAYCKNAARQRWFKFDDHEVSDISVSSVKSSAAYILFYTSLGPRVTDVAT

[2] = target: Ubiquitin carboxyl-terminal hydrolase isozyme L1 (Homo sapiens) (UniProt P09936); test: Inhibition of human UCHL1 at 31 uM
[3] = target: Replicase polyprotein 1a (Human coronavirus NL63) (UniProt P0C6U6); test: Inhibition of human coronavirus NL63 PLP2 (amino acids 1565 to 1894) expressed in Escherichia coli BL21 (DE3) cells assessed as reduction of AMC release using Z-RLRGG-AMC as substrate at 100 uM by multimode plate reader analysis
HEK293 = test: Cytotoxicity against human HEK293 cells assessed as cell viability after 48 hrs by Cell Titer-Glo luminescent assay; assay type: cell-based; conditions: hek293, 48 h
[4] = target: Ubiquitin carboxyl-terminal hydrolase 7 (Homo sapiens, UniProt Q93009); test: Inhibition of human USP7 using Ub-rhodamine 110 as substrate
Ubiquitin carboxyl-terminal hydrolase 7, sequence (Q93009 whole entry): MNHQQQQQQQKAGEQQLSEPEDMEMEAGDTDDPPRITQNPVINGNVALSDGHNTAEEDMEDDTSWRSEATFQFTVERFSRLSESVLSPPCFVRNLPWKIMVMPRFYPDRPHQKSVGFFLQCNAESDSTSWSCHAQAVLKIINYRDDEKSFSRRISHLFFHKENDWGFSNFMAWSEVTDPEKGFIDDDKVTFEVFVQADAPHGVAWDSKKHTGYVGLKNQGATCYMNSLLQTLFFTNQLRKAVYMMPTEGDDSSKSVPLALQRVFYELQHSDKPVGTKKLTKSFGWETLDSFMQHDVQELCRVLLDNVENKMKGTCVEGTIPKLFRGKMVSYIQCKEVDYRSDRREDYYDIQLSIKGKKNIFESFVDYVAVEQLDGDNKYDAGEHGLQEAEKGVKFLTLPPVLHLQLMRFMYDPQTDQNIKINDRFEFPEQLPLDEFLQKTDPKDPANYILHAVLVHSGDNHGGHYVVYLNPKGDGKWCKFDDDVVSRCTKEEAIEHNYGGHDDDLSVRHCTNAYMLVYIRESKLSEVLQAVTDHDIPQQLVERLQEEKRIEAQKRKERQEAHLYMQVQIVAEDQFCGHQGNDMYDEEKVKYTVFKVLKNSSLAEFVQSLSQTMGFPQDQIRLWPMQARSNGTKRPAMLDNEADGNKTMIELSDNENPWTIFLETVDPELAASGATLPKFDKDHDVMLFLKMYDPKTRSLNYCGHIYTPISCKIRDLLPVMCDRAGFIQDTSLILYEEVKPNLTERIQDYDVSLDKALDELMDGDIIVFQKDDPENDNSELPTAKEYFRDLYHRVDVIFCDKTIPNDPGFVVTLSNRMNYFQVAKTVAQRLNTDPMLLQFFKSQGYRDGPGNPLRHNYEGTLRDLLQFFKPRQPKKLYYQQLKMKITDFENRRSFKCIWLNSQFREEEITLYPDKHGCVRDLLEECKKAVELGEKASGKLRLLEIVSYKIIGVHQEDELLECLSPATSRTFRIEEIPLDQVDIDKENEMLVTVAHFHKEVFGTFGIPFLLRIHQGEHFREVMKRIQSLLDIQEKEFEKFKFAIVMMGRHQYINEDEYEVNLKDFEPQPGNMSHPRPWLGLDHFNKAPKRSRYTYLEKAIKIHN

[5] = Metabolic stability in mouse liver microsomes assessed as parent compound remaining at 1 uM after 15 mins; assay type: ADME; conditions: read-out: Stability
[6] = target: Replicase polyprotein 1a (Human coronavirus NL63) (UniProt P0C6U6); test: (§1) Inhibition of human coronavirus NL63 PLP2 (amino acids 1565 to 1894) expressed in Escherichia coli BL21 (DE3) cells assessed as reduction of AMC release using Z-RLRGG-AMC as substrate by multimode plate reader analysis
Target sequence in this assay (P0C6U6 899-2462 limits assumed): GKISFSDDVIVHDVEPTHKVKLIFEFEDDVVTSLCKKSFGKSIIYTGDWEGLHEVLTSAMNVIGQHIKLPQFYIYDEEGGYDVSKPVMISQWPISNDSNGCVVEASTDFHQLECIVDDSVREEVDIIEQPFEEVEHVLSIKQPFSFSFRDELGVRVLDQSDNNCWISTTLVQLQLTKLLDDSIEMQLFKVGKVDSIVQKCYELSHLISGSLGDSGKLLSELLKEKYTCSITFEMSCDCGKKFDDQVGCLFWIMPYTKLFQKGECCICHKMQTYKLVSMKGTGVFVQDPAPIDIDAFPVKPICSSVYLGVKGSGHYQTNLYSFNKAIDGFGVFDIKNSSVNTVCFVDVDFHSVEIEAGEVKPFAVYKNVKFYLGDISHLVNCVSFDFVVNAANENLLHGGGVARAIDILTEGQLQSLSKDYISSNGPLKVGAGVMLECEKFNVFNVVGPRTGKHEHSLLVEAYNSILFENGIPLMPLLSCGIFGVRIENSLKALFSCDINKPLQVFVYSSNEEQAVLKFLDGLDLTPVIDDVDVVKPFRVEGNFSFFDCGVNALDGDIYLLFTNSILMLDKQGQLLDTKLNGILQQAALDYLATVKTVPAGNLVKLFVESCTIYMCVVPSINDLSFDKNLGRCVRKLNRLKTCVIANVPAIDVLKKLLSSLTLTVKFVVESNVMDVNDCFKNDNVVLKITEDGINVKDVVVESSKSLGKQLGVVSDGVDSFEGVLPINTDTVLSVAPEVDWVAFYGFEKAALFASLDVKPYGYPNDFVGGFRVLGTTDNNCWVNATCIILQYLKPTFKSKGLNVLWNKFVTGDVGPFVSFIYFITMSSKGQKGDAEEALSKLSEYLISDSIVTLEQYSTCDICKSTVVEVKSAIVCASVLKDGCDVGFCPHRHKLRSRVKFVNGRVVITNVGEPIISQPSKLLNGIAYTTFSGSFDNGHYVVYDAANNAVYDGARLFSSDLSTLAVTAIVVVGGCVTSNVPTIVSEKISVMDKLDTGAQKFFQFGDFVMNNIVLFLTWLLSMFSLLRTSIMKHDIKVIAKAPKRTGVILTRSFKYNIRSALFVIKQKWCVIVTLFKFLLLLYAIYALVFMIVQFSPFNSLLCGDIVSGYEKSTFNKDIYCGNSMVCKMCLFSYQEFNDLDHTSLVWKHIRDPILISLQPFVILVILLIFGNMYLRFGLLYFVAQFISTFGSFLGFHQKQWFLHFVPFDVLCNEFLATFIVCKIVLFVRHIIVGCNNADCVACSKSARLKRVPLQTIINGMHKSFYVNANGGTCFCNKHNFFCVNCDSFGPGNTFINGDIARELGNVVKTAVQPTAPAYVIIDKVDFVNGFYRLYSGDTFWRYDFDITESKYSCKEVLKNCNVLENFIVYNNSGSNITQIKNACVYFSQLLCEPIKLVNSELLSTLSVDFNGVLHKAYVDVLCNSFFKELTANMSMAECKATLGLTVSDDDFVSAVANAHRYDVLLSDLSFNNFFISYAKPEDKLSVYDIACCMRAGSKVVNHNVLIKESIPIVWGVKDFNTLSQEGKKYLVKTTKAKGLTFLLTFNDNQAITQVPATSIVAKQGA

Replicase polyprotein 1a = Replicase polyprotein 1a (Human coronavirus NL63, UniProt P0C6U6); test: as §1
Replicase polyprotein 1a, sequence (P0C6U6 899-2462 limits assumed): as above

[7] = target: T2, Ubiquitin carboxyl-terminal hydrolase isozyme L1 (Homo sapiens, UniProt P09936); test: Inhibition of human UCHL1
T2 sequence (P09936 whole entry): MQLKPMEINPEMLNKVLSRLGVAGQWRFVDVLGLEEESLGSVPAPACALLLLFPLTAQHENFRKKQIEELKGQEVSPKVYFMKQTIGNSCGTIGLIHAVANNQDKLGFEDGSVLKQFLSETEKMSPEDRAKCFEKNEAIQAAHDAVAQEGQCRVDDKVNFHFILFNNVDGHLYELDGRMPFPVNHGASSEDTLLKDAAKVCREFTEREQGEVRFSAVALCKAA

[8] = target: Ubiquitin carboxyl-terminal hydrolase 20 (Homo sapiens, UniProt Q9Y2K6); test: Inhibition of human USP20 using Ub-rhodamine 110 as substrate at 31 uM
Ubiquitin carboxyl-terminal hydrolase 20, sequence (Q9Y2K6 whole entry): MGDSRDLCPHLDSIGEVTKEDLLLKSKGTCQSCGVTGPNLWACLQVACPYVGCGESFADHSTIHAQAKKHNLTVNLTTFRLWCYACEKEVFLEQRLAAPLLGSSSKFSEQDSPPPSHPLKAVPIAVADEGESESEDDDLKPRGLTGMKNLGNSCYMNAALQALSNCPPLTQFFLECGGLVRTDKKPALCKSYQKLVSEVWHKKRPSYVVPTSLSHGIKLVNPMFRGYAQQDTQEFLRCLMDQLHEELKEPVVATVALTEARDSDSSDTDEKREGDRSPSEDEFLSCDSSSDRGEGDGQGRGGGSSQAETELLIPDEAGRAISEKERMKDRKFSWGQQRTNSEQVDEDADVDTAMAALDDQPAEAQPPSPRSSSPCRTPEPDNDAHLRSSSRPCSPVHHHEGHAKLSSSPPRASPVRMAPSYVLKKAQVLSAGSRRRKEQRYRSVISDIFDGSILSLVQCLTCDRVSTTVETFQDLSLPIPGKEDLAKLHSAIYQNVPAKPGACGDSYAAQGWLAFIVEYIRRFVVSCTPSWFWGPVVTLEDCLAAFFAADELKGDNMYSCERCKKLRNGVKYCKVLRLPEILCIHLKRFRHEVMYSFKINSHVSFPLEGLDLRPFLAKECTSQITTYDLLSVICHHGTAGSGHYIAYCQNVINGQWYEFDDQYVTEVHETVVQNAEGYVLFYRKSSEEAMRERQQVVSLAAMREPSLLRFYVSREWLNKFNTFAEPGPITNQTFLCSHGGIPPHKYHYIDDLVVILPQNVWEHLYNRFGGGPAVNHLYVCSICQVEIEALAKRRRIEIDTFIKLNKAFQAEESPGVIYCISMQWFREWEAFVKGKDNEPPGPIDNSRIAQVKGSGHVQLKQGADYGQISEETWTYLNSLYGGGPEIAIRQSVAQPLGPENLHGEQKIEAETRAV

Cathepsin K = target: T3, Cathepsin K (Homo sapiens, UniProt P43235); test: Inhibition of human cathepsin K using fluorogenic peptide as substrate
T3 sequence (P43235 whole entry): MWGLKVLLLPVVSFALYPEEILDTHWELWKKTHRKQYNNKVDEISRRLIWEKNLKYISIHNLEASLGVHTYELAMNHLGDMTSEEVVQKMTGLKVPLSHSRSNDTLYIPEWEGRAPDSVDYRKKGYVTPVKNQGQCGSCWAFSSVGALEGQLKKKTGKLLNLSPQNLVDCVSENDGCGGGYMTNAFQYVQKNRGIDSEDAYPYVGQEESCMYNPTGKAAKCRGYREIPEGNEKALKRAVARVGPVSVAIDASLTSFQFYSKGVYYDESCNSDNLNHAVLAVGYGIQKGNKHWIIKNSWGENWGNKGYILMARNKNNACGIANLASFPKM

[9] = target: T4, Sentrin-specific protease 8 (Homo sapiens) (UniProt Q96LD8); test: Inhibition of human DEN1 using Nedd8-EKL as substrate at 31 uM
T4 sequence (whole entry): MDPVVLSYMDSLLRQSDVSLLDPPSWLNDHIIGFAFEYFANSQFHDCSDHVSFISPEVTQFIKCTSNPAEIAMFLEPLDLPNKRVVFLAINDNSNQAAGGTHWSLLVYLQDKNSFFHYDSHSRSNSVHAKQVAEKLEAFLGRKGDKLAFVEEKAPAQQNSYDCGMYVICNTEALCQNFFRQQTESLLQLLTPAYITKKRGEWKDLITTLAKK

SARS-CoV = test: Antiviral activity against SARS coronavirus infected in african green monkey Vero E6 cells assessed as cell viability after 48 hrs by Cell Titer-Glo luminescent assay; assay type: functional, organism-based; conditions: Severe acute respiratory syndrome-related coronavirus
[10] = Cytotoxicity against african green monkey Vero E6 cells assessed as cell viability after 48 hrs by Cell Titer-Glo luminescent assay; assay type: cell-based; conditions: chlorocebus sabaeus
Liver = test: Half life in mouse liver microsomes at 1 uM; assay type: ADME

Molecule `C[C@H](c1cccc2ccccc12)N1CCC(C(=O)NCc2ccc3c(c2)OCO3)CC1` has an IC50 [1] greater than 100 µM, an inhibition [2] of less than 10% and an inhibition [3] greater than 30%. The CC50 (HEK293) was greater than 100 µM, the IC50 [4] was “Not Active” and the remaining at 0.25 h, 1 µM [5] was 0.2%. For the same molecule, the Imax [6] was 46%, the IC50 (Replicase polyprotein 1a) was 18 µM and the IC50 [7] was “Not Active”. For the same molecule, the inhibition [8] was less than 10%, the IC50 (Cathepsin K) was “Not Active” and the inhibition [9] was less than 10%. The EC50 (SARS-CoV) was 12.8 µM, the CC50 [10] was greater than 100 µM and the t1/2 (Liver) was 1.6 min.

`C[C@H](c1cccc2ccccc12)N1CCC(C(=O)NCc2ccc(F)cc2)CC1` showed an IC50 [1] greater than 100 µM, an inhibition [2] of less than 10% and a CC50 (HEK293) of 73 µM. For the same molecule, the IC50 [4] was “Not Active”, the IC50 [7] was “Not Active” and the inhibition [8] was 10%. The IC50 (Cathepsin K) was “Not Active”, the inhibition [9] was less than 10% and the EC50 (SARS-CoV) was 11.6 µM. The CC50 [10] was greater than 100 µM.

With `C[C@H](c1cccc2ccccc12)N1CCC(C(=O)NCc2cccc(F)c2)CC1` the IC50 [1] was greater than 100 µM, the inhibition [2] was less than 10% and the inhibition [3] was greater than 30%. For the same molecule, the CC50 (HEK293) was 73 µM, the IC50 [4] was “Not Active” and the remaining at 0.25 h, 1 µM [5] was 1.2%. For the same molecule, the Imax [6] was 57%, the IC50 (Replicase polyprotein 1a) was 33 µM and the IC50 [7] was “Not Active”. For the same molecule, the inhibition [8] was 10%, the IC50 (Cathepsin K) was “Not Active” and the inhibition [9] was less than 10%. It also gave an EC50 (SARS-CoV) of 5.4 µM, a CC50 [10] greater than 100 µM and a t1/2 (Liver) of 2.8 min.

`CC(=O)Nc1cccc(CNC(=O)C2CCN([C@H](C)c3cccc4ccccc34)CC2)c1` gave an IC50 [1] greater than 100 µM, an inhibition [2] of less than 10% and an inhibition [3] greater than 30%. The CC50 (HEK293) was 68 µM, the IC50 ([4]; read-out: IC50) was greater than 100 µM and the remaining at 0.25 h, 1 µM [5] was 20%. For the same molecule, the Imax [6] was 71%, the IC50 (Replicase polyprotein 1a) was 46 µM and the IC50 [7] was “Not Active”. The inhibition [8] was 10%, the IC50 (Cathepsin K) was “Not Active” and the inhibition [9] was less than 10%. It also gave an EC50 (SARS-CoV) of 8.3 µM, a CC50 [10] greater than 100 µM and a t1/2 (Liver) of 7 min.
